Where “and” joins values, the source holds several entries; their conditions need not be identical. Equal entries are not always repeated. Values belong to the compound of their own block, whether it stands above or below them. Peptide text beside a SMILES is read from it.
Test: Surface tension measurement, Kruss Processor Tensiometer-K12, Wilhelmy-method (plate method)
Assay type: physicochemical
Details: for Surface tension, 25° C. Extrapolated Values at 2 mg/ml / Surface tension, 45° C. Extrapolated Values at 2 mg/ml: extrapolated to 2 mg/ml
Method: A “surface active” material is one having surface activity (measured, e.g., by surface tensiometry), as characterized by its ability to reduce the surface tension of the liquid in which it is dissolved. […] A peptide that is more surface active than another peptide is one which decreases the surface tension of water to a greater extent, when present in the liquid at the same concentration and measured under the same set of experimental conditions. The surface tension of several representative dipeptides, tripeptides, and proteins was measured at 25° C. and 45° C. to provide an indication of their relative surface activities. Surface tension measurements were carried out using a Kruss Processor Tensiometer-K12 with the Wilhelmy-method (Plate method). Solutions were prepared by dissolving either 0.05%, 0.2%, or 0.6% peptide/protein (by weight) along with an appropriate amount of raffinose by weight to provide final solutions having a 1.0% by weight solids content. Surface tension measurements at 25° C. and 45° C. were then obtained for the test solutions at three different time points (49 seconds, 100 seconds and 194 seconds).

Surface activity (ability to lower the surface tension of water), in words: non-surface active
Surface tension (ST) (1% raffinose, 25° C., 49 s): 72 mN/m
Surface tension (ST) (1% raffinose, 25° C., 100 s): 72 mN/m
Surface tension (ST) (1% raffinose, 25° C., 194 s): 72 mN/m
Surface tension (ST) (1% raffinose, pH4, 25° C., 49 s): 71.4 mN/m and 71.1 mN/m
Surface tension (ST) (1% raffinose, pH4, 25° C., 100 s): 71.4 mN/m and 71.1 mN/m
Surface tension (ST) (1% raffinose, pH4, 25° C., 194 s): 71.4 mN/m and 71.1 mN/m
Surface tension (ST) (1% raffinose, pH4, 45° C., 49 s): 67.9 mN/m and 68.2 mN/m and 68 mN/m
Surface tension (ST) (1% raffinose, pH4, 45° C., 100 s): 68 mN/m and 68.2 mN/m
Surface tension (ST) (1% raffinose, pH4, 45° C., 194 s): 68 mN/m and 68.2 mN/m and 68.1 mN/m
Surface tension (ST) (1% raffinose, pH7, 25° C., 49 s): 71.1 mN/m
Surface tension (ST) (1% raffinose, pH7, 25° C., 100 s): 71.1 mN/m
Surface tension (ST) (1% raffinose, pH7, 25° C., 194 s): 71.1 mN/m
Surface tension (ST) (1% raffinose, pH7, 45° C., 49 s): 68.4 mN/m and 68.3 mN/m
Surface tension (ST) (1% raffinose, pH7, 45° C., 100 s): 68.4 mN/m and 68.3 mN/m
Surface tension (ST) (1% raffinose, pH7, 45° C., 194 s): 68.4 mN/m and 68.3 mN/m
Compound: OC[C@H]1O[C@H](OC[C@H]2O[C@H](O[C@]3(CO)O[C@H](CO)[C@@H](O)[C@@H]3O)[C@H](O)[C@@H](O)[C@@H]2O)[C@H](O)[C@@H](O)[C@H]1O [raffinose]

Surface activity (ability to lower the surface tension of water), in words: highly surface active
Surface tension, Actual MEAN (0.68 mg/ml, 25° C.): 56.9 mN/m
Surface tension, Actual MEAN (0.68 mg/ml, 45° C.): 52.8 mN/m
Surface tension, Actual MEAN (2.03 mg/ml, 25° C.): 49.7 mN/m
Surface tension, Actual MEAN (2.03 mg/ml, 45° C.): 46.3 mN/m
Surface tension, Actual MEAN (6.10 mg/ml, 25° C.): 42.4 mN/m
Surface tension, Actual MEAN (6.10 mg/ml, 45° C.): 38.9 mN/m
Surface tension (ST) (0.05%, pH4, raffinose to 1% solids, 25° C., 49 s, listed as leu3): 59.9 mN/m and 60.4 mN/m
Surface tension (ST) (0.05%, pH4, raffinose to 1% solids, 25° C., 100 s, listed as leu3): 59.8 mN/m and 60.3 mN/m
Surface tension (ST) (0.05%, pH4, raffinose to 1% solids, 25° C., 194 s, listed as leu3): 59.7 mN/m and 60.2 mN/m
Surface tension (ST) (0.05%, pH4, raffinose to 1% solids, 45° C., 49 s, listed as leu3): 57.1 mN/m and 58.1 mN/m and 58 mN/m
Surface tension (ST) (0.05%, pH4, raffinose to 1% solids, 45° C., 100 s, listed as leu3): 57 mN/m and 57.9 mN/m and 57.8 mN/m
Surface tension (ST) (0.05%, pH4, raffinose to 1% solids, 45° C., 194 s, listed as leu3): 57 mN/m and 57.8 mN/m
Surface tension (ST) (0.05%, pH7, raffinose to 1% solids, 25° C., 49 s, listed as leu3): 60.1 mN/m and 60 mN/m and 60.2 mN/m
Surface tension (ST) (0.05%, pH7, raffinose to 1% solids, 25° C., 100 s, listed as leu3): 59.8 mN/m and 60 mN/m
Surface tension (ST) (0.05%, pH7, raffinose to 1% solids, 25° C., 194 s, listed as leu3): 59.7 mN/m and 59.8 mN/m
Surface tension (ST) (0.05%, pH7, raffinose to 1% solids, 45° C., 49 s, listed as leu3): 58.5 mN/m and 58.2 mN/m
Surface tension (ST) (0.05%, pH7, raffinose to 1% solids, 45° C., 100 s, listed as leu3): 58.4 mN/m and 58.2 mN/m and 58.1 mN/m
Surface tension (ST) (0.05%, pH7, raffinose to 1% solids, 45° C., 194 s, listed as leu3): 58.4 mN/m and 58.1 mN/m
Surface tension (ST) (0.2% (wt/vol) plus raffinose to 1% total solids, 25° C., 49 s): 51 mN/m
Surface tension (ST) (0.2% (wt/vol) plus raffinose to 1% total solids, 25° C., 100 s): 50.9 mN/m and 50.8 mN/m
Surface tension (ST) (0.2% (wt/vol) plus raffinose to 1% total solids, 25° C., 194 s): 50.9 mN/m and 50.7 mN/m
Surface tension (ST) (0.2%, pH4, raffinose to 1% solids, 25° C., 49 s): 51.4 mN/m
Surface tension (ST) (0.2%, pH4, raffinose to 1% solids, 25° C., 100 s, listed as leu3): 51.2 mN/m and 51.3 mN/m
Surface tension (ST) (0.2%, pH4, raffinose to 1% solids, 25° C., 194 s, listed as leu3): 51.1 mN/m and 51.2 mN/m
Surface tension (ST) (0.2%, pH4, raffinose to 1% solids, 45° C., 49 s, listed as leu3): 47.9 mN/m and 47.2 mN/m
Surface tension (ST) (0.2%, pH4, raffinose to 1% solids, 45° C., 100 s, listed as leu3): 47.5 mN/m and 47.2 mN/m and 47.3 mN/m
Surface tension (ST) (0.2%, pH4, raffinose to 1% solids, 45° C., 194 s, listed as leu3): 47.4 mN/m and 47.3 mN/m and 47.1 mN/m
Surface tension (ST) (0.2%, pH7, raffinose to 1% solids, 25° C., 49 s, listed as leu3): 51 mN/m and 50.9 mN/m and 50.7 mN/m
Surface tension (ST) (0.2%, pH7, raffinose to 1% solids, 25° C., 100 s, listed as leu3): 50.8 mN/m and 50.7 mN/m and 50.5 mN/m
Surface tension (ST) (0.2%, pH7, raffinose to 1% solids, 25° C., 194 s, listed as leu3): 50.7 mN/m and 50.6 mN/m and 50.4 mN/m
Surface tension (ST) (0.2%, pH7, raffinose to 1% solids, 45° C., 49 s, listed as leu3): 58.5 mN/m and 58.2 mN/m
Surface tension (ST) (0.2%, pH7, raffinose to 1% solids, 45° C., 100 s, listed as leu3): 58.4 mN/m and 58.2 mN/m and 58.1 mN/m
Surface tension (ST) (0.2%, pH7, raffinose to 1% solids, 45° C., 194 s, listed as leu3): 58.4 mN/m and 58.1 mN/m
Surface tension (ST) (0.6%, pH4, raffinose to 1% solids, 25° C., 49 s, listed as leu3): 44.2 mN/m and 44.3 mN/m
Surface tension (ST) (0.6%, pH4, raffinose to 1% solids, 25° C., 100 s, listed as leu3): 44.1 mN/m and 44.2 mN/m
Surface tension (ST) (0.6%, pH4, raffinose to 1% solids, 25° C., 194 s, listed as leu3): 44 mN/m and 44.2 mN/m and 44.1 mN/m
Surface tension (ST) (0.6%, pH4, raffinose to 1% solids, 45° C., 49 s, listed as leu3): 40.9 mN/m and 41.1 mN/m
Surface tension (ST) (0.6%, pH4, raffinose to 1% solids, 45° C., 100 s, listed as leu3): 40.9 mN/m and 41 mN/m
Surface tension (ST) (0.6%, pH4, raffinose to 1% solids, 45° C., 194 s, listed as leu3): 40.8 mN/m and 40.9 mN/m
Surface tension (ST) (0.6%, pH7, raffinose to 1% solids, 25° C., 49 s, listed as leu3): 43.7 mN/m and 43.8 mN/m
Surface tension (ST) (0.6%, pH7, raffinose to 1% solids, 25° C., 100 s): 43.7 mN/m
Surface tension (ST) (0.6%, pH7, raffinose to 1% solids, 25° C., 194 s, listed as leu3): 43.6 mN/m and 43.7 mN/m
Surface tension of water lowered to (concentration of 0.68 mg/ml): about 57 mN/m
Surface tension of water lowered to (concentration of 1.20 mg/ml, water about 72 mN/m): 42 mN/m
Surface tension, 25° C. Extrapolated Values at 2 mg/ml (25° C.): 49.7 mN/m
Surface tension, 45° C. Extrapolated Values at 2 mg/ml (45° C.): 46.3 mN/m
Compound: CC(C)CC(N)C(=O)NC(CC(C)C)C(=O)NC(CC(C)C)C(=O)O (stereo not drawn) [tri-leucine, trileucine] (H-Leu-Leu-Leu-OH; configuration not given here)

Surface tension, Actual MEAN (0.97 mg/ml, 25° C.): 67.5 mN/m
Surface tension, Actual MEAN (0.97 mg/ml, 45° C.): 60.3 mN/m
Surface tension, Actual MEAN (2.90 mg/ml, 25° C.): 62.8 mN/m
Surface tension, Actual MEAN (2.90 mg/ml, 45° C.): 57.7 mN/m
Surface tension, Actual MEAN (8.70 mg/ml, 25° C.): 55.7 mN/m
Surface tension, Actual MEAN (8.70 mg/ml, 45° C.): 53.8 mN/m
Surface tension, 25° C. Extrapolated Values at 2 mg/ml (25° C.): 65 mN/m
Surface tension, 45° C. Extrapolated Values at 2 mg/ml (45° C.): 58.9 mN/m
Compound: Ala-Val-Leu [reference compound]

Surface tension, Actual MEAN (0.71 mg/ml, 25° C.): 71.5 mN/m
Surface tension, Actual MEAN (0.71 mg/ml, 45° C.): 68.0 mN/m
Surface tension, Actual MEAN (2.13 mg/ml, 25° C.): 68.0 mN/m
Surface tension, Actual MEAN (2.13 mg/ml, 45° C.): 65.6 mN/m
Surface tension, Actual MEAN (6.40 mg/ml, 25° C.): 62.2 mN/m
Surface tension, Actual MEAN (6.40 mg/ml, 45° C.): 59.5 mN/m
Surface tension, 25° C. Extrapolated Values at 2 mg/ml (25° C.): 68.3 mN/m
Surface tension, 45° C. Extrapolated Values at 2 mg/ml (45° C.): 67.3 mN/m
Compound: Leu-Tyr [reference compound]

Surface tension, Actual MEAN (0.98 mg/ml, 25° C.): 69.2 mN/m
Surface tension, Actual MEAN (0.98 mg/ml, 45° C.): 64.2 mN/m
Surface tension, Actual MEAN (2.93 mg/ml, 25° C.): 65 mN/m
Surface tension, Actual MEAN (2.93 mg/ml, 45° C.): 60.4 mN/m
Surface tension, Actual MEAN (8.80 mg/ml, 25° C.): 59.1 mN/m
Surface tension, Actual MEAN (8.80 mg/ml, 45° C.): 55.7 mN/m
Surface tension, 25° C. Extrapolated Values at 2 mg/ml (25° C.): 67.2 mN/m
Surface tension, 45° C. Extrapolated Values at 2 mg/ml (45° C.): 62.3 mN/m
Compound: Leu-Val [reference compound]

Surface tension, Actual MEAN (1.11 mg/ml, 25° C.): 71.6 mN/m
Surface tension, Actual MEAN (1.11 mg/ml, 45° C.): 66.3 mN/m
Surface tension, Actual MEAN (3.33 mg/ml, 25° C.): 70.1 mN/m
Surface tension, Actual MEAN (3.33 mg/ml, 45° C.): 65.3 mN/m
Surface tension, Actual MEAN (10.00 mg/ml, 25° C.): 66.1 mN/m
Surface tension, Actual MEAN (10.00 mg/ml, 45° C.): 61.9 mN/m
Surface tension, 25° C. Extrapolated Values at 2 mg/ml (25° C.): 70.3 mN/m
Surface tension, 45° C. Extrapolated Values at 2 mg/ml (45° C.): 65.8 mN/m
Compound: Val-Ile [reference compound]

Surface tension, Actual MEAN (0.87 mg/ml, 25° C.): 70 mN/m
Surface tension, Actual MEAN (0.87 mg/ml, 45° C.): 65.5 mN/m
Surface tension, Actual MEAN (2.60 mg/ml, 25° C.): 69.5 mN/m
Surface tension, Actual MEAN (2.60 mg/ml, 45° C.): 65.0 mN/m
Surface tension, Actual MEAN (7.80 mg/ml, 25° C.): 68 mN/m
Surface tension, Actual MEAN (7.80 mg/ml, 45° C.): 63.5 mN/m
Surface tension, 25° C. Extrapolated Values at 2 mg/ml (25° C.): 69.8 mN/m
Surface tension, 45° C. Extrapolated Values at 2 mg/ml (45° C.): 65.3 mN/m
Compound: Val-Leu [reference compound]
